Experimental data reported in patent US20240124410A1, “SMALL MOLECULES AND THEIR USE AS MALT1 INHIBITORS” (University of Pittsburgh - Of the Commonwealth System of …, priority 2021, published 2024).

What was measured:
KvLQT1/minK = molecular target: T1, KvLQT1/minK (Homo sapiens, UniProt P15382+P51787); assay: Eurofins SAFETYscan 78-target panel, off-target effects, KvLQT1/minK; assay type: biochemical; conditions: antagonist / blocker / inhibitor mode
T1 construct: Eurofins
Description: (§1) FIG. 9. Table summarizing the Eurofins analysis of potential off-target effects of M1i-124. […] values above 10 μM are generally considered to be acceptable. FIG. 10. Representative hematoxylin and eosin (H&E) staining of organ sections (lung, heart, kidney, liver and adrenal) from control and M1i-124 treated mice described in FIG. 6.
(§2) Studies were performed using the services of Touchstone Biosciences and Eurofins Pharma Discovery Services. […] All blood samples (30-50 ul per sample) were taken via tail vein at 5, 15, and 30 minutes, and 1, 2, 4, 6, 8, and 24 hours after dosing. Blood samples are collected in Greiner MiniCollect K2 EDTA tubes, placed on ice, and within 30 minutes, centrifuged at 15,000 g for 5 minutes to obtain plasma samples. All plasma samples are stored at −70° C. until analysis. Plasma samples were prepared for analysis by LC-MS/MS, and key PK parameters, including terminal half-life (t 112), initial plasma concentration (C0), area under the plasma concentration vs. time curve (AUC), volume of distribution at steady-state (Vss), total plasma clearance (CLp), and mean residence time (MRT), were measured.
(§3) Assay details are available through Eurofins.

OPRM1 = molecular target: T2, OPRM1 (Homo sapiens, UniProt P35372); assay: Eurofins SAFETYscan 78-target panel, off-target effects, OPRM1; assay type: biochemical; conditions: antagonist / blocker / inhibitor mode
T2 construct: Eurofins
Description: as §1, §2, §3

DRD1 = molecular target: T3, DRD1 (Homo sapiens, UniProt P21728); assay: Eurofins SAFETYscan 78-target panel, off-target effects, DRD1; assay type: biochemical; conditions: antagonist / blocker / inhibitor mode
T3 construct: Eurofins
Description: as §1, §2, §3

BCL10-MALT1 interaction = molecular target: T4, BCL10-MALT1 interaction (Homo sapiens, UniProt Q9UDY8); assay: ELISA-based protein-protein interaction assay; assay type: binding; design: GST-tagged recombinant human full-length MALT1 protein (Novus Biologicals Cat #H00010892-P01); purchased Novus Biologicals H00010892-P01
T4 sequence (Q9UDY8 1-824): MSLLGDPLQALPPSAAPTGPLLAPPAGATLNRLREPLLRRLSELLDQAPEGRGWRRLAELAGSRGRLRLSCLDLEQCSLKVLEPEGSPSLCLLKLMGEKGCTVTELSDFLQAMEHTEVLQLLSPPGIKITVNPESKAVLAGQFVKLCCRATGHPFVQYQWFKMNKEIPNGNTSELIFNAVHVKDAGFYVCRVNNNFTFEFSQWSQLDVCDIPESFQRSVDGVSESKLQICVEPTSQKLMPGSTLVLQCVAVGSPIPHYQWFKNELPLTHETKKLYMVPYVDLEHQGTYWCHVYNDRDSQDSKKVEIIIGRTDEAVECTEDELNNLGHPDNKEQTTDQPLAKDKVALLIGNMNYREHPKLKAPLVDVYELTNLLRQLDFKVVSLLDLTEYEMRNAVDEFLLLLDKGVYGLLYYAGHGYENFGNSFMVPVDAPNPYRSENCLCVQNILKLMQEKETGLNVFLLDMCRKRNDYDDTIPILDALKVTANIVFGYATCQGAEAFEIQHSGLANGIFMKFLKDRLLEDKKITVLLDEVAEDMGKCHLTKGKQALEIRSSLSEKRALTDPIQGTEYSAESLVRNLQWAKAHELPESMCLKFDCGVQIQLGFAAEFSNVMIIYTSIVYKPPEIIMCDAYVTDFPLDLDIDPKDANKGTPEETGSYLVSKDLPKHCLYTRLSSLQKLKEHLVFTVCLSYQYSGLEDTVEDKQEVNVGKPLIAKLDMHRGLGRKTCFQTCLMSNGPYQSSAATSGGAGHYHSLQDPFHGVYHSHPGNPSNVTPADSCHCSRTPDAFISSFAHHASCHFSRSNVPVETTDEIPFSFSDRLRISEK
Description: On a high-binding 96-well ELISA microplate (Greiner Cat #655061), 100 ng of His-tagged recombinant human full-length Bcl10 protein (ProteinTech Cat #Ag12162) in 100 ul PBS was allowed to adhere overnight in 4° C. The plate was blocked with 5% BSA in PBS for 1 hour at room temperature. After washing twice with PBS-T, a mixture of 100 ng of GST-tagged recombinant human full-length MALT1 protein (Novus Biologicals Cat #H00010892-P01), +/−compound that was preincubated for 1 hour in 100 ul PBS, was added to the plate for 1 hour at room temperature. After washing three times with PBS-T, anti-MALT1 antibody in 5% BSA in PBS was added at 1:1000 dilution for 1 hour at room temperature. After washing three times with PBS-T, HRP-conjugated secondary antibody in 5% BSA in PBS was added at 1:5000 dilution for 1 hour at room temperature. After washing three times with PBS-T, 100 ul of TMB was added for 5 minutes, and 100 ul of 2 M sulfuric acid was added to stop the reaction. The plate was read at 450 nm using a spectrophotometer (Molecular Devices SpectraMax i3).

[1] = tested on: IL-6 and IL-10 secretion in TMD8 cells; assay: IL-6 and IL-10 secretion by TMD8 cells (ELISA); assay type: cell-based, human
Description: Expression of cytokines from cell culture supernatants was measured 24h after treatment with 0, 0.01, 0.03, 0.1, 0.3, 1, or 3 uM of compounds using the following ELISA kits according to the manufacturer's instructions: Human IL-2 ELISA (BioLegend Cat #431804), Human IL-6 ELISA (BioLegend Cat #430504), and Human IL-10 ELISA (BioLegend Cat #430604).

[2] = tested on: T cell receptor (TCR)-induced phosphorylation of ERK; assay: Phosphorylation of ERK in Jurkat T cells (Western blot); assay type: cell-based; conditions: 20 hours pretreatment, anti-CD3/CD28 for 0-20 minutes
Description: The DLBCL cell lines, OCI-Ly1, OCI-Ly3, and OCI-Ly7, were provided by Dr. Mark Minden (University Health Network, Toronto, Ontario, Canada). TMD8 cells were provided by Dr. Louis Staudt (NCI, NIH). OCI-Ly1 and OCI-Ly7 cells were cultured in Iscove's Modified Dulbecco's Medium (IMDM) supplemented with 10% FBS. OCI-Ly3 cells were cultured in IMDM supplemented with 20% FBS. TMD8 and Jurkat T cells were cultured in RPMI1640 medium with 10% FBS. HEK293T cells were cultured in DMEM medium with 10% FBS. All media were supplemented with 100 U/ml penicillin streptomycin. Stimulation of Jurkat cells was conducted by adding 5 ng/ml of phorbol 12-myristatel3 acetate (PMA)(Sigma-Aldrich) and 1μM ionomycin (Calbiochem), or by adding 5-10 μL/mL of ImmunoCult Human CD3/CD28 ([…] Technologies).

T3 sequence (P21728 whole entry): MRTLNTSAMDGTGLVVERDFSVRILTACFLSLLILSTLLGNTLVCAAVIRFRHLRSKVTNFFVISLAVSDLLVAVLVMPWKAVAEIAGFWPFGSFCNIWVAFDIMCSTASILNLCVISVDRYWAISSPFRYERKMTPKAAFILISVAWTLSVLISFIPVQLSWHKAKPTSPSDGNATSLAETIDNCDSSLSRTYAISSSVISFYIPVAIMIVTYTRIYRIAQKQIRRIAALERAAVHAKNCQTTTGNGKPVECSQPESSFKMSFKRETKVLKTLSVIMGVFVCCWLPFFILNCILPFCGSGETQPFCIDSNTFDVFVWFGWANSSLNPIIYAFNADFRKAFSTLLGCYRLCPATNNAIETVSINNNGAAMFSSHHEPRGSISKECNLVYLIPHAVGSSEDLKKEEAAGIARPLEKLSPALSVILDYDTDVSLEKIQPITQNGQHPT
T2 sequence (P35372 whole entry): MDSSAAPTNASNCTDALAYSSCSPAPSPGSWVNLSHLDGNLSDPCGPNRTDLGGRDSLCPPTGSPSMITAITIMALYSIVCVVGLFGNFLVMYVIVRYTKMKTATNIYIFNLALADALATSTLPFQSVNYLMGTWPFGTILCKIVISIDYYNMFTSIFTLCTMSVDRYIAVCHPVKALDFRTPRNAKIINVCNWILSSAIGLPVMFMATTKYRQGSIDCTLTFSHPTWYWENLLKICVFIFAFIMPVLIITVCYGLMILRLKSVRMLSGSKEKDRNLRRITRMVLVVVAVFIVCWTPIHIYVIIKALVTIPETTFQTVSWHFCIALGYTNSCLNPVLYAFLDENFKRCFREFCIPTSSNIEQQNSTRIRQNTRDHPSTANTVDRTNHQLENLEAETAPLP

SMILES	IC50 (KvLQT1/minK)	IC50 (OPRM1)	IC50 (DRD1)	ELISA IC50 compared with parent compound M1i-124 (BCL10-MALT1 interaction)	Disruption of the BCL10-MALT1 interaction by ELISA in the presence of tween (BCL10-MALT1 interaction; 0.005% tween)	IL-6 secretion [1]	IL-10 secretion [1]	Phosphorylation of ERK (phospho-ERK/total ERK) [2]
O=S(=O)(NCc1ccc2c(c1)OCO2)c1ccc(Cc2ccc(S(=O)(=O)NCc3ccc4c(c3)OCO4)cc2)cc1 [M1i-124]	1800 nM	3700 nM	1900 nM					
COc1ccc(CNS(=O)(=O)c2ccc(Cc3ccc(S(=O)(=O)NCc4ccc(OC)cc4)cc3)cc2)cc1 [M1i-124d1]				lower IC50 as compared to parent compound	retain the ability to disrupt the BCL10-MALT1 interaction	inhibit IL-6 and IL-10 secretion in a concentration-dependent manner	inhibit IL-6 and IL-10 secretion in a concentration-dependent manner	Neither M1i-124 (F) or M1i-124d1 (G) inhibits
